Data reported in patent publication US12404304B1, “Telomerase reverse transcriptase (TERT) expression enhancing compounds and methods for using the same” (Sierra Sciences, LLC, priority 2007, dated 2025).

Columns and labels:
viable cells in culture = assay: Cell viability assay (CellTiter-Glo Luminescent Cell Viability Assay, ATP quantitation, percent of vehicle control)
[1] = tested on: human TERT expression (hTERT mRNA); assay: Quantitative real-time RT-PCR of hTERT mRNA expression (Ct, transcripts) in compound-treated cells; type: cell-based; conditions: quantitative real-time RT-PCR
Text: Telomerase is a ribonucleoprotein complex composed of the catalytic protein subunit (human telomerase reverse transcriptase or hTERT) and the RNA template. hTERT expression level can be measured by PCR.
Briefly, amplification of the target sequence is monitored per PCR cycle by detecting the fluorescence signal emitted by an internal probe that is degraded by the 5′ nuclease activity of the Taq polymerase. The emission signal accumulates in each sample, and the Ct required to reach a given fluorescence threshold is determined (Ct stands for Cycle Threshold and is a measure of the number of PCR cycles that are required to amplify a target—thus, a lower Ct score means that there is more abundant hTERT mRNA). Thus, the Ct value of a sample inversely correlates to the quantity of the starting cDNA which correlates to the number of mRNA transcripts. Using the cDNA of known quantity, a standard curve can be generated and used to determine the starting amount of mRNA transcripts based on the […] of each sample.
Quantitative real-time PCR can be done on cDNA from test compound-treated and nontreated cells by use of a ABI Prism 7900 Sequence Detection System (PE Applied Biosystems, Foster City, CA) following the Assays-on-Demand protocol (PE Applied Biosystems, Foster City, CA). Quantitative data can be analyzed using the Sequence Detection System software version 2.1 (PE Applied Biosystems).
The following compounds were tested in assays designed to identify compounds that enhance human TERT expression.

Row | Structure (SMILES) | Average Cell Viability after 24 Hours (% DMSO) (viable cells in culture) | Average Number of hTERT Transcripts [1]
1 | CCCC(=O)NC(c1ccc(SC)cc1)c1ccc2cccnc2c1O (centres unmarked) [compound 1010] | 86.63 % DMSO | 35.70
2 | COc1cc(NS(=O)(=O)c2cc(Cl)ccc2Cl)c2ncccc2c1 [compound 1026] | 52.03 % DMSO | 11.55
3 | CC(=O)NC(c1ccc(N(C)C)cc1)c1cc(Cl)c2cccnc2c1O (centres unmarked) [compound 1059] | 53.52 % DMSO | 26.79
4 | CC(C)C(=O)NC(c1ccc(C(C)C)cc1)c1cc([N+](=O)[O-])c2cccnc2c1O (centres unmarked) [compound 1071] | 81.62 % DMSO | –
5 | COc1ccc(C(NC(=O)C2CCCCC2)c2cc([N+](=O)[O-])c3cccnc3c2O)cc1OC (centres unmarked) [compound 1072] | 78.35 % DMSO | –
6 | COc1ccc(C(NC(=O)C(C)C)c2cc([N+](=O)[O-])c3cccnc3c2O)cc1 (centres unmarked) [compound 1073] | 80.10 % DMSO | –
7 | CCC(=O)NC(c1ccccc1Cl)c1cc([N+](=O)[O-])c2cccnc2c1O (centres unmarked) [compound 1074] | 75.55 % DMSO | –
8 | COc1ccc(C(NC(=O)CC(C)C)c2ccc3cccnc3c2O)cc1OC (centres unmarked) [compound 1076] | 62.85 % DMSO | 61.45
9 | CCCC(=O)NC(c1ccco1)c1cc(Cl)c2cccnc2c1O (centres unmarked) [compound 1077] | 38.99 % DMSO | –
10 | Cc1ccc2ccc(C(Nc3ccccn3)c3cccc([N+](=O)[O-])c3)c(O)c2n1 (centres unmarked) [compound 1078] | 67.66 % DMSO | –
11 | Cc1cn(-c2ccc3c(Cl)cc(Cl)c(O)c3n2)nc1C [compound 1079] | 71.22 % DMSO | 98.36
12 | Cc1ccnc(NC(c2cccc(Cl)c2)c2ccc3ccc(C)nc3c2O)c1 (centres unmarked) [compound 1080] | 72.44 % DMSO | –
13 | Cc1ccnc(NC(c2ccc([N+](=O)[O-])cc2)c2ccc3ccc(C)nc3c2O)c1 (centres unmarked) [compound 1081] | 70.69 % DMSO | 18.87
14 | Oc1c(C(Nc2ccccn2)c2ccc(Cl)c(Cl)c2)ccc2cccnc12 (centres unmarked) [compound 1082] | 56.92 % DMSO | –
15 | Cc1ccnc(NC(c2cccc(Br)c2)c2ccc3ccc(C)nc3c2O)c1 (centres unmarked) [compound 1083] | 74.39 % DMSO | –
16 | Cc1ccnc(NC(c2cccc([N+](=O)[O-])c2)c2ccc3ccc(C)nc3c2O)c1 (centres unmarked) [compound 1084] | 65.08 % DMSO | 11.54
17 | Oc1c(CN2CCN(Cc3ccc4cccnc4c3O)CC2)ccc2cccnc12 [compound 1085] | 61.83 % DMSO | 59.41
18 | O=C(NC(c1ccccc1)c1ccc2cccnc2c1O)c1ccccc1 (centres unmarked) [compound 1086] | 56.53 % DMSO | –
19 | CC(C)C(=O)NC(c1ccco1)c1ccc2cccnc2c1O (centres unmarked) [compound 1087] | 72.33 % DMSO | –
20 | Cc1ccc(C(NC(=O)C(C)C)c2ccc3cccnc3c2O)cc1 (centres unmarked) [compound 1088] | 55.87 % DMSO | –
21 | CCN1CCN(Cc2ccc3cccnc3c2O)CC1 [compound 1089] | 89.98 % DMSO | –
22 | CC(C)C(=O)NC(c1cccs1)c1cc(Cl)c2cccnc2c1O (centres unmarked) [compound 1090] | 27.89 % DMSO | 29.08
23 | Cc1ccc(S(=O)(=O)Nc2ccc(O)c3ncccc23)cc1 [compound 1091] | 94.30 % DMSO | –
24 | Cc1ccc(S(=O)(=O)Nc2cc(Cl)c(O)c3ncccc23)cc1 [compound 1092] | 66.43 % DMSO | –
25 | Cc1ccc(S(=O)(=O)Nc2cc(S(=O)(=O)c3ccc(C)cc3)c(O)c3ncccc23)cc1 [compound 1093] | 66.50 % DMSO | –
26 | Oc1c(C(Nc2ccccn2)c2ccccc2Cl)ccc2cccnc12 (centres unmarked) [compound 1094] | 56.64 % DMSO | 32.08
27 | Oc1c(C(Nc2ccccc2Cl)c2ccccn2)ccc2cccnc12 (centres unmarked) [compound 1095] | 56.93 % DMSO | –

Row | Structure (SMILES) | Average Cell Viability after 24 Hours (% DMSO) (viable cells in culture) | Average Number of hTERT Transcripts [1]
28 | CCN(CC)Cc1ccc(O)c2ncccc12 [compound 1096] | 67.13 % DMSO | –
29 | COCc1cc(CN2CCCC2)c(O)c2ncccc12 [compound 1097] | 78.08 % DMSO | –
30 | COCc1cc(CN2CCCCC2)c(O)c2ncccc12 [compound 1098] | 68.58 % DMSO | –
31 | CCOCc1cc(CN2CCCCC2)c(O)c2ncccc12 [compound 1099] | 64.22 % DMSO | –
32 | CCCOCc1cc(CN2CCCCC2)c(O)c2ncccc12 [compound 1100] | 56.10 % DMSO | –
33 | CCCOCc1cc(CN2CCN(C)CC2)c(O)c2ncccc12 [compound 1101] | 76.69 % DMSO | –
34 | CC(C)OCc1cc(CN2CCCCC2)c(O)c2ncccc12 [compound 1102] | 68.56 % DMSO | –
35 | CC1CCN(Cc2cc(COC(C)C)c3cccnc3c2O)CC1 [compound 1103] | 58.35 % DMSO | –
36 | Cc1cc(NC(c2ccccn2)c2ccc3cccnc3c2O)no1 (centres unmarked) [compound 1104] | 71.14 % DMSO | –
37 | Cc1ccc2c(I)cc(I)c(O)c2n1 [compound 1105] | 58.63 % DMSO | –
38 | COc1ccc(-c2cc(O)n(-c3ccc([N+](=O)[O-])cc3)n2)cc1 [compound 1106] | 79.49 % DMSO | 68.17
39 | COc1ccc(C2=NN(c3nc4ccccc4s3)C(=O)C2)cc1 [compound 1107] | 98.68 % DMSO | 67.06
40 | Oc1cc(-c2ccccc2)nn1-c1nc2ccccc2[nH]1 [compound 1108] | 94.50 % DMSO | 79.20
41 | CC1=NN(c2nc3ccccc3s2)C(=O)C1CCC(C)C (centres unmarked) [compound 1109] | 67.53 % DMSO | 35.79
42 | Oc1cc(-c2ccc(F)cc2)nn1-c1nc2ccccc2[nH]1 [compound 1110] | 100.67 % DMSO | 86.68
43 | CCCCc1c(C)nn(-c2nc3ccccc3[nH]2)c1O [compound 1111] | 47.04 % DMSO | 18.99
44 | Oc1c2c(nn1-c1nc3ccccc3[nH]1)CCCC2 [compound 1112] | 77.30 % DMSO | 112.20
45 | Oc1c2c(nn1-c1nc3ccccc3s1)CCCC2 [compound 1113] | 89.80 % DMSO | 66.98
46 | COc1cc([C@@H]2c3cc4c(cc3C(OC3O[C@@H]5COC(C)O[C@H]5[C@H](O)[C@H]3O)C3COC(=O)[C@@H]32)OCO4)cc(OC)c1O (some centres unmarked) [compound 1224] | – | 89.52
47 | O=S1(=O)CCC(N2COc3c(cc(Cl)c4cccnc34)C2)C1 (centres unmarked) [compound 1462] | 62.26 % DMSO | –
48 | Cc1ccc2ccc(C(Nc3ccccn3)c3ccccc3Br)c(O)c2n1 (centres unmarked) [compound 1477] | 76.49 % DMSO | –
49 | O=C(CCc1ccccc1)NC(c1ccc(Cl)cc1)c1ccc2cccnc2c1O (centres unmarked) [compound 1478] | 72.44 % DMSO | –
50 | CC(C)C(=O)NC(c1ccccc1)c1cc([N+](=O)[O-])c2cccnc2c1O (centres unmarked) [compound 1479] | 68.20 % DMSO | –
51 | Cc1ccc2ccc(C(Nc3ccccn3)c3ccccc3Cl)c(O)c2n1 (centres unmarked) [compound 1480] | 79.43 % DMSO | –
52 | COc1ccc(C(NC(=O)C(C)C)c2cc([N+](=O)[O-])c3cccnc3c2O)cc1OC (centres unmarked) [compound 1481] | 78.30 % DMSO | –
53 | Oc1ccc(CN2CCN(c3cccc(Cl)c3)CC2)c2cccnc12 [compound 1482] | 80.49 % DMSO | –
